Reference: patent US9238631B2, “Radiolabeled amino acids for diagnostic imaging” (PIRAMAL IMAGING SA, priority 2011, dated 2016)

How the values were obtained:
xCT (SLC7A11) = biological target: T1, xCT (SLC7A11) (Homo sapiens, UniProt Q9UPY5); assay: Competition profile indicating uptake via xCT (SLC7A11); assay type: cell-based; details: competitor 1 mM, NCI-H460 cells
T1 construct: NCI-H460 tumor cells were co-incubated with the F-18 labeled tracer and several cold derivatives; endogenous in cells; host or cells: NCI-H460 tumor cells
T1 sequence (Q9UPY5 1-501): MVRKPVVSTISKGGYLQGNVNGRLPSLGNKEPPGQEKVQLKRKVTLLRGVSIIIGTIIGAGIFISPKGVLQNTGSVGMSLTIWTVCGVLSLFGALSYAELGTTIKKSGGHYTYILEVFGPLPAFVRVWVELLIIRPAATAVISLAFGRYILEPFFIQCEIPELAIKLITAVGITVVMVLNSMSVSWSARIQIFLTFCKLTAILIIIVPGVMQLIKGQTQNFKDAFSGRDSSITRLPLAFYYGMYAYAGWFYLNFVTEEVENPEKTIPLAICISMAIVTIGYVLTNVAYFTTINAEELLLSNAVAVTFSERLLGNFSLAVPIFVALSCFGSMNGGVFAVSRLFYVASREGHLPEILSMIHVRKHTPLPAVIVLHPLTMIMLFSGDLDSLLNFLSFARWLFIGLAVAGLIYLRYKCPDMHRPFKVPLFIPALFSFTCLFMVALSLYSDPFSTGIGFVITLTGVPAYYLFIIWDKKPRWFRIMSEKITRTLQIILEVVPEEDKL
T1 sequence (P08195 1-529 partner): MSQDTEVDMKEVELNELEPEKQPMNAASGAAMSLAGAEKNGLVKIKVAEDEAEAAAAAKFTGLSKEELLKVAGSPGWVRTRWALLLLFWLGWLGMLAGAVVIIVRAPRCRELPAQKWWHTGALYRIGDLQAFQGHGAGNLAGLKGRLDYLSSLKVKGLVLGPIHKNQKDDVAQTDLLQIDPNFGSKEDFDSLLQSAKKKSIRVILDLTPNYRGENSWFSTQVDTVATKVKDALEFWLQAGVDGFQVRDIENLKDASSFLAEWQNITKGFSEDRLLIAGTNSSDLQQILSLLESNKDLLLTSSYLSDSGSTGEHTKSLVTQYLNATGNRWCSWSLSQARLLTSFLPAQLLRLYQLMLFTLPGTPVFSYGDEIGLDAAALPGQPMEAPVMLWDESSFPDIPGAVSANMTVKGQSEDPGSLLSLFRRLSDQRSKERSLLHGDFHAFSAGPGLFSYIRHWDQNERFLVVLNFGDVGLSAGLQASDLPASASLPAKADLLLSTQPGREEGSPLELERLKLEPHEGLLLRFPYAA
Protocol: For determination of the responsible uptake mechanism, NCI-H460 tumor cells were co-incubated with the F-18 labeled tracer and several cold derivatives. These derivatives were used at a concentration of 1 mM, which is a large excess compared to the tracer. L-Glutamic acid, L-cystine, Carboxyphenylglycine (CPG) were used as competitors. In addition, also D-Glutamic acid, as well as L-aspartic acid and D-aspartic acid were used in this competition experiments. […] The same experiments were performed using [^18F]-1, [^18F]-4, [^18F]-9, [^18F]-8, [^18F]-25 and [^18F]-22.

[1] = test system: NCI-H460 (human NSCLC) cells; assay: In vitro cell-uptake study: blocking of radiolabeled glutamate derivative uptake; assay type: cell-based; details: compound 1 mM, 30 minutes, mean ± SD, without compound = 100%
Protocol: The ability of compounds from the present invention to compete with radiolabeled glutamate derivatives for uptake into tumor cells was examined. NCI-H460 (human NSCLC) cells, grown adherently in 48 well plates were used for these competition-experiments. Approximately 100.000 cells were co-incubated in PBS-buffer containing 0.1% BSA with a radiolabeled Glutamic acid derivative and several compounds, which were used at a concentration of 1 mM for 30 minutes. After this time, the cell bound radioactivity was determined.

SMILES: N[C@H](CCC(=O)O)C(=O)O [D-Glutamic acid, reference compound]
- reduction of [^18F]-12 uptake by excess competitor (xCT (SLC7A11)): less effective competitors

SMILES: N[C@H](CC(=O)O)C(=O)O [D-aspartic acid, reference compound]
- reduction of [^18F]-12 uptake by excess competitor (xCT (SLC7A11)): less effective competitors

SMILES: N[C@@H](C[C@H](Cc1ccc(OCCCF)cc1)C(=O)O)C(=O)O [Example 4, (4S)-4-[4-(3-Fluoropropoxy)benzyl]-L-glutamic acid]
- Uptake of radiolabeled glutamate-derivative (% of control) [1]: 3.0 ± 0.1 % of control

SMILES: N[C@@H](CC(Cc1ccc(CCCF)cc1)C(=O)O)C(=O)O (stereo partly drawn) [Example 9, 4-[4-(3-Fluoropropyl)benzyl]-L-glutamic acid]
- Uptake of radiolabeled glutamate-derivative (% of control) [1]: 14.2 ± 1.0 % of control

SMILES: N[C@@H](CCC(Cc1ccc(OCCF)cc1)C(=O)O)C(=O)O (stereo partly drawn) [Example 12, (2S)-2-Amino-5-[4-(2-Fluoroethoxy)benzyl]-hexanedioic acid]
- Uptake of radiolabeled glutamate-derivative (% of control) [1]: 3.9 ± 0.3 % of control

SMILES: N[C@@H](CC(CCCc1ccc(CCCF)cc1)C(=O)O)C(=O)O (stereo partly drawn) [Example 19, 4-{3-[4-(3-Fluoropropyl)phenyl]propyl}-L-glutamic acid]
- Uptake of radiolabeled glutamate-derivative (% of control) [1]: 6.6 ± 1.6 % of control

SMILES: N[C@H](C[C@@H](Cc1ccc(OCCF)cc1)C(=O)O)C(=O)O [Example 23, (4R)-4-[4-(2-Fluoroethoxy)benzyl]-D-glutamic acid]
- Uptake of radiolabeled glutamate-derivative (% of control) [1]: 43.8 ± 3.2 % of control

SMILES: N[C@H](C[C@@H](Cc1ccc(OCCCF)cc1)C(=O)O)C(=O)O [Example 24, (4R)-4-[4-(3-Fluoropropoxy)benzyl]-D-glutamic acid]
- Uptake of radiolabeled glutamate-derivative (% of control) [1]: 36.5 ± 3.8 % of control
